What was measured:
[1] = test system: GM1 production; experiment: cells; assay type: cell-based; details: Homo sapiens, Jurkat, 72 h
[2] = target: glucosylceramide synthase (GCS) (Homo sapiens (Human), UniProt Q16739); experiment: Evaluation of inhibitory activities against GCS (enzyme reaction with A549 cell lysate, NBD C6-ceramide, HPLC fluorescence); assay type: biochemical; details: GCS activity in A549 cell lysate, 37° C. for 90 minutes
How it was run: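 Lysate of A549 cells in 50 mM HEPES pH 7.3 incubated with test compound and NBD C6-ceramide at 37 °C for 90 min; lipids extracted with chloroform/methanol and GlcCer and ceramide peaks quantified by HPLC fluorescence. Activity from GlcCer area fraction, normalised between DMSO and ibiglustat controls.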

Chain of glucosylceramide synthase (GCS) (Q16739 whole entry, looked up): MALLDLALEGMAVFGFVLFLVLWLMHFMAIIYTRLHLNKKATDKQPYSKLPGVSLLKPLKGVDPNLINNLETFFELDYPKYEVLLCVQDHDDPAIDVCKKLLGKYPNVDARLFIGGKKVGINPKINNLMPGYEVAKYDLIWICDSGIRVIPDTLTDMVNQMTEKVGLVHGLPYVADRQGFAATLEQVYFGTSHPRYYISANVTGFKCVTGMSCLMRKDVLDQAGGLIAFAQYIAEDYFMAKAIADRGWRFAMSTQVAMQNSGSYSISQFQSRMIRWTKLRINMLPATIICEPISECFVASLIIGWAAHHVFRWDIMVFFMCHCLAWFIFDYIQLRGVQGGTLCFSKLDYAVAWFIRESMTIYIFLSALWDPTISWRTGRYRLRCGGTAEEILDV

| SMILES | IC50 [1] | IC50 [2] |
| --- | --- | --- |
| O=C(NC1CCCc2ccc(-c3ccccc3Cl)cc21)O[C@@H]1CN2CCC1CC2 (stereo partly drawn) [Example 62, (S)-quinuclidin-3-yl (7-(2-chlorophenyl)-1,2,3,4-tetrahydronaphthalen-1-yl)carbamate] | 49.2 nM | 7.37 nM |
| O=C(NC1CCCc2ccc(-c3cc(F)ccc3F)cc21)O[C@@H]1CN2CCC1CC2 (stereo partly drawn) [Example 67, (S)-quinuclidin-3-yl (7-(2,5-difluorophenyl)-1,2,3,4-tetrahydronaphthalen-1-yl)carbamate] | 38.3 nM | 7.3 nM |
| CCc1cccc(-c2ccc3c(c2)CCC(C)(C)C3NC(=O)O[C@@H]2CN3CCC2CC3)c1 (stereo partly drawn) [Example 127, (S)-quinuclidin-3-yl (6-(3-ethylphenyl)-2,2-dimethyl-1,2,3,4-tetrahydronaphthalen-1-yl)carbamate] | 2 nM | 1.92 nM |
| CC(C)(C)c1cccc(-c2ccc3c(c2)CCC(C)(C)C3NC(=O)O[C@@H]2CN3CCC2CC3)c1 (stereo partly drawn) [Example 128, (S)-quinuclidin-3-yl (6-(3-(tert-butyl)phenyl)-2,2-dimethyl-1,2,3,4-tetrahydronaphthalen-1-yl)carbamate] | 1.3 nM | 2.84 nM |
| COc1ccc(OC)c(-c2ccc3c(c2)CCC(C)(C)C3NC(=O)O[C@@H]2CN3CCC2CC3)c1 (stereo partly drawn) [Example 135, (S)-quinuclidin-3-yl (6-(2,5-dimethoxyphenyl)-2,2-dimethyl-1,2,3,4-tetrahydronaphthalen-1-yl)carbamate] | 8.3 nM | 2.81 nM |
| COCCOc1ccc(-c2ccc3c(c2)CCC2(CC2)C3NC(=O)O[C@@H]2CN3CCC2CC3)cc1 (stereo partly drawn) [Example 194, (S)-quinuclidin-3-yl (6′-(4-(2-methoxyethoxy)phenyl)-3′,4′-dihydro-1′H-spiro[cyclopropane-1,2′-naphthalen]-1′-yl)carbamate] | 7.92 nM | 1.03 nM |
| CCCOc1ccc(-c2ccc3c(c2)C(NC(=O)O[C@@H]2CN4CCC2CC4)CCC3)cc1 (stereo partly drawn) [Example 82, (S)-quinuclidin-3-yl (7-(4-propoxyphenyl)-1,2,3,4-tetrahydronaphthalen-1-yl)carbamate] | 14.4 nM | 30.3 nM |
| COCOc1ccccc1-c1ccc2c(c1)C(NC(=O)O[C@@H]1CN3CCC1CC3)C(C)(C)CC2 (stereo partly drawn) [Example 170, (S)-quinuclidin-3-yl (7-(2-(methoxymethoxy)phenyl)-2,2-dimethyl-1,2,3,4-tetrahydronaphthalen-1-yl)carbamate] | 39 nM | 9.41 nM |
| COc1ccc(-c2ccc3c(c2)CCC2(CC2)C3NC(=O)O[C@@H]2CN3CCC2CC3)c(OC)c1 (stereo partly drawn) [Example 210, (S)-quinuclidin-3-yl (6′-(2,4-dimethoxyphenyl)-3′,4′-dihydro-1′H-spiro[cyclopropane-1,2′-naphthalen]-1′-yl)carbamate] | 44.2 nM | 23.6 nM |
| COc1ccc(OC)c(-c2ccc3c(c2)CCC2(CC2)C3NC(=O)O[C@@H]2CN3CCC2CC3)c1 (stereo partly drawn) [Example 211, (S)-quinuclidin-3-yl (6′-(2,5-dimethoxyphenyl)-3′,4′-dihydro-1′H-spiro[cyclopropane-1,2′-naphthalen]-1′-yl)carbamate] | 147 nM | 27.6 nM |
| O=C(NC1c2cc(-c3cccc(OC(F)(F)F)c3)ccc2CCC12CC2)O[C@@H]1CN2CCC1CC2 (stereo partly drawn) [Example 178, (S)-quinuclidin-3-yl (7′-(3-(trifluoromethoxy)phenyl)-3′,4′-dihydro-1′H-spiro[cyclopropane-1,2′-naphthalen]-1′-yl)carbamate] | 274 nM | 22.7 nM |
| CCOc1ccc(-c2ccc3c(c2)CCC(C)(C)C3NC(=O)O[C@@H]2CN3CCC2CC3)cc1F (stereo partly drawn) [Example 144, (S)-quinuclidin-3-yl (6-(4-ethoxy-3-fluorophenyl)-2,2-dimethyl-1,2,3,4-tetrahydronaphthalen-1-yl)carbamate] | 1.6 nM | 1.39 nM |
| O=C(NC1c2ccc(-c3cccc(OC(F)(F)F)c3)cc2CCC12CC2)O[C@@H]1CN2CCC1CC2 (stereo partly drawn) [Example 193, (S)-quinuclidin-3-yl (6′-(3-(trifluoromethoxy)phenyl)-3′,4′-dihydro-1′H-spiro[cyclopropane-1,2′-naphthalen]-1′-yl)carbamate] | 21.6 nM | 20.9 nM |
| COc1cccc(OC)c1-c1ccc2c(c1)CCC1(CC1)C2NC(=O)O[C@@H]1CN2CCC1CC2 (stereo partly drawn) [Example 212, (S)-quinuclidin-3-yl (6′-(2,6-dimethoxyphenyl)-3′,4′-dihydro-1′H-spiro[cyclopropane-1,2′-naphthalen]-1′-yl)carbamate] | 221 nM | 104 nM |
| CC1(C)CCc2cc(-c3ccc(F)cc3F)ccc2C1NC(=O)O[C@@H]1CN2CCC1CC2 (stereo partly drawn) [Example 101, (S)-quinuclidin-3-yl (6-(2,4-difluorophenyl)-2,2-dimethyl-1,2,3,4-tetrahydronaphthalen-1-yl)carbamate] | 2.55 nM | 1.59 nM |
| CC(C)(C)c1cccc(-c2ccc3c(c2)CCCC3NC(=O)O[C@@H]2CN3CCC2CC3)c1 (stereo partly drawn) [Example 39, (S)-quinuclidin-3-yl (6-(3-(tert-butyl)phenyl)-1,2,3,4-tetrahydronaphthalen-1-yl)carbamate] | 849 nM | 2.88 nM |
| CC(C)Oc1cccc(-c2ccc3c(c2)CCC2(CC2)C3NC(=O)O[C@@H]2CN3CCC2CC3)c1 (stereo partly drawn) [Example 208, (S)-quinuclidin-3-yl (6′-(3-isopropoxyphenyl)-3′,4′-dihydro-1′H-spiro[cyclopropane-1,2′-naphthalen]-1′-yl)carbamate] | 47.7 nM | 21.2 nM |
| COc1ccc(Cl)c(-c2ccc3c(c2)CCC(C)(C)C3NC(=O)O[C@@H]2CN3CCC2CC3)c1 (stereo partly drawn) [Example 125, (S)-quinuclidin-3-yl (6-(2-chloro-5-methoxyphenyl)-2,2-dimethyl-1,2,3,4-tetrahydronaphthalen-1-yl)carbamate] | 2.04 nM | 1.1 nM |
| COc1ccc(-c2ccc3c(c2)CCCC3NC(=O)O[C@@H]2CN3CCC2CC3)cc1 (stereo partly drawn) [Example 46, (S)-quinuclidin-3-yl (6-(4-methoxyphenyl)-1,2,3,4-tetrahydronaphthalen-1-yl)carbamate] | 216 nM | 13 nM |
| CC1(C)CCc2ccc(-c3ccccc3F)cc2C1NC(=O)O[C@@H]1CN2CCC1CC2 (stereo partly drawn) [Example 159, (S)-quinuclidin-3-yl (7-(2-fluorophenyl)-2,2-dimethyl-1,2,3,4-tetrahydronaphthalen-1-yl)carbamate] | 49.8 nM | 10.9 nM |
| CCOc1ccc(-c2ccc3c(c2)CCC(C)(C)C3NC(=O)O[C@@H]2CN3CCC2CC3)cc1Cl (stereo partly drawn) [Example 140, (S)-quinuclidin-3-yl (6-(3-chloro-4-ethoxyphenyl)-2,2-dimethyl-1,2,3,4-tetrahydronaphthalen-1-yl)carbamate] | 1.4 nM | 1.49 nM |
| CCOc1ccc(-c2ccc3c(c2)CCC2(CC2)C3NC(=O)O[C@@H]2CN3CCC2CC3)cc1 (stereo partly drawn) [Example 217, (S)-quinuclidin-3-yl (6′-(4-ethoxyphenyl)-3′,4′-dihydro-1′H-spiro[cyclopropane-1,2′-naphthalen]-1′-yl)carbamate] | 15.8 nM | 1.01 nM |
| CC(C)Oc1ccccc1-c1ccc2c(c1)C(NC(=O)O[C@@H]1CN3CCC1CC3)CCC2 (stereo partly drawn) [Example 78, (S)-quinuclidin-3-yl (7-(2-isopropoxyphenyl)-1,2,3,4-tetrahydronaphthalen-1-yl)carbamate] | 230 nM | 30.1 nM |

Source: patent publication US12338237B2, “Derivatives having 1,2,3,4-tetrahydronaphthalene moiety or pharmaceutically acceptable salt thereof and pharmaceutical compositions comprising the same” (YUHAN CORPORATION, priority 2019, dated 2025)
